Laboratory results: patent US9763943B2, “Trk-inhibiting compound” (ONO PHARMACEUTICAL CO., LTD., priority 2013, dated 2017)

test system: sodium monoiodoacetate (MIA)-induced model rats; experiment: Analgesic effect on sodium monoiodoacetate-induced model rats (right hind limb weight load ratio); type: in vivo, rat; conditions: day 24, positive control drug, 10 mg/kg subcutaneous, 1 hour after administration (Table 7)

| SMILES | Percent improvement (%) |
| --- | --- |
| COc1cccc(C2(O)CCCCC2CN(C)C)c1 (stereo not shown) [Tramadol, reference compound] | 43 |

same assay, conditions: day 24, test substance oral twice a day over 10 days, 3 hours after last administration, experiment with morphine as positive control (Table 8)

| SMILES | Percent improvement (%) |
| --- | --- |
| Nc1ncc(F)cc1-c1ccc(Oc2ncc(NC(=O)Nc3cc(C(F)(F)F)ccc3-c3cccnc3)cn2)cc1 [Example 14-6, 1-(2-(4-(2-amino-5-fluoropyridin-3-yl)phenoxy)pyrimidin-5-yl)-3-(2-(pyridin-3-yl)-5-(trifluoromethyl)phenyl)urea] | 53 |
| Nc1ncc(C(F)(F)F)cc1-c1ccc(Oc2ncc(NC(=O)Nc3cc(C(F)(F)F)ccc3-n3ccc(C(F)(F)F)n3)cn2)cc1 [Example 15-52, 1-(2-{4-[2-amino-5-(trifluoromethyl)-3-pyridinyl]phenoxy}-5-pyrimidinyl)-3-{5-(trifluoromethyl)-2-[3-(trifluoromethyl)-1H-pyrazol-1-yl]phenyl}urea] | 60 |
| Nc1ncc(Cl)cc1-c1ccc(Oc2ncc(NC(=O)Nc3cc(C(F)(F)F)ccc3-c3ccccc3)cn2)cc1 [Example 15-55, 1-{2-[4-(2-amino-5-chloro-3-pyridinyl)phenoxy]-5-pyrimidinyl}-3-[4-(trifluoromethyl)-2-biphenylyl]urea] | 62 |
| Nc1ncc(Cl)cc1-c1ccc(Oc2ncc(NC(=O)Nc3cc(C(F)(F)F)ccc3-n3cc(Cl)cn3)cn2)cc1 [Example 15-63, 1-{2-[4-(2-amino-5-chloro-3-pyridinyl)phenoxy]-5-pyrimidinyl}-3-[2-(4-chloro-1H-pyrazol-1-yl)-5-(trifluoromethyl)phenyl]urea] | 53 |
| Nc1ncc(Cl)cc1-c1ccc(Oc2ncc(NC(=O)Nc3ccc(C(F)(F)F)cc3C(F)(F)F)cn2)cc1 [Example 15-77, 1-{2-[4-(2-amino-5-chloro-3-pyridinyl)phenoxy]-5-pyrimidinyl}-3-[2,4-bis(trifluoromethyl)phenyl]urea] | 55 |
| Nc1ncc(C(F)(F)F)cc1-c1ccc(Oc2ncc(NC(=O)Nc3cc(C(F)(F)F)ccc3-n3cc(Cl)cn3)cn2)cc1 [Example 15-87, 1-(2-{4-[2-amino-5-(trifluoromethyl)-3-pyridinyl]phenoxy}-5-pyrimidinyl)-3-[2-(4-chloro-1H-pyrazol-1-yl)-5-(trifluoromethyl)phenyl]urea] | 57 |
| CS(=O)(=O)c1ccc(C(F)(F)F)cc1NC(=O)Nc1cnc(Oc2ccc(-c3cc(C(F)(F)F)cnc3N)cc2)nc1 [Example 15-98, 1-(2-{4-[2-amino-5-(trifluoromethyl)-3-pyridinyl]phenoxy}-5-pyrimidinyl)-3-[2-(methylsulfonyl)-5-(trifluoromethyl)phenyl]urea] | 57 |
| CS(=O)(=O)c1ccc(C(F)(F)F)cc1NC(=O)Nc1cnc(Oc2ccc(-c3cc(Cl)cnc3N)cc2)nc1 [Example 15-104, 1-{2-[4-(2-amino-5-chloro-3-pyridinyl)phenoxy]-5-pyrimidinyl}-3-[2-(methylsulfonyl)-5-(trifluoromethyl)phenyl]urea] | 54 |
| CN(C)c1ccn2ncc(-c3ccc(Oc4ncc(NC(=O)Nc5cc(C(F)(F)F)ccc5-c5cccnc5)cn4)cc3)c2n1 [Example 21-37, 1-(2-{4-[5-(dimethylamino)pyrazolo[1,5-a]pyrimidin-3-yl]phenoxy}-5-pyrimidinyl)-3-[2-(3-pyridinyl)-5-(trifluoromethyl)phenyl]urea] | 67 |
| CN(C)c1ccn2ncc(-c3ccc(Oc4ncc(NC(=O)Nc5cc(C(F)(F)F)ccc5-c5ccnn5C)cn4)cc3)c2n1 [Example 21-51, 1-(2-{4-[5-(dimethylamino)pyrazolo[1,5-a]pyrimidin-3-yl]phenoxy}-5-pyrimidinyl)-3-[2-(1-methyl-1H-pyrazol-5-yl)-5-(trifluoromethyl)phenyl]urea] | 68 |
| CN(C)c1ccn2ncc(-c3ccc(Oc4ncc(NC(=O)Nc5cc(C(F)(F)F)ccc5-c5ccccc5)cn4)cc3)c2n1 [Example 21-70, 1-(2-{4-[5-(dimethylamino)pyrazolo[1,5-a]pyrimidin-3-yl]phenoxy}-5-pyrimidinyl)-3-[4-(trifluoromethyl)-2-biphenylyl]urea] | 61 |
| Cc1cccc(-c2ccc(C(F)(F)F)cc2NC(=O)Nc2cnc(Oc3ccc(-c4cnn5ccc(N(C)C)nc45)cc3)nc2)c1 [Example 21-73, 1-(2-{4-[5-(dimethylamino)pyrazolo[1,5-a]pyrimidin-3-yl]phenoxy}-5-pyrimidinyl)-3-[3′-methyl-4-(trifluoromethyl)-2-biphenylyl]urea] | 62 |

same assay, conditions: day 24, test substance oral twice a day over 10 days, 3 hours after last administration, experiment with tramadol as positive control (Table 7)

| SMILES | Percent improvement (%) |
| --- | --- |
| Nc1ncc(Cl)cc1-c1ccc(Oc2ncc(NC(=O)Nc3cc(C(F)(F)F)ccc3-n3cccn3)cn2)cc1 [Example 7, 1-(2-(1H-pyrazol-1-yl)-5-(trifluoromethyl)phenyl)-3-(2-(4-(2-amino-5-chloropyridin-3-yl)phenoxy)pyrimidin-5-yl)urea] | 61 |
| Cc1cn(-c2ccc(C(F)(F)F)cc2NC(=O)Nc2cnc(Oc3ccc(-c4cc(Cl)cnc4N)cc3)nc2)nn1 [Example 8-1, 1-(2-(4-(2-amino-5-chloropyridin-3-yl)phenoxy)pyrimidin-5-yl)-3-(2-(4-methyl-1H-1,2,3-triazol-1-yl)-5-(trifluoromethyl)phenyl)urea] | 60 |
| Nc1ncc(F)cc1-c1ccc(Oc2ncc(NC(=O)Nc3cc(C(F)(F)F)ccc3-n3ccnn3)cn2)cc1 [Example 14-5, 1-(2-(1H-1,2,3-triazol-1-yl)-5-(trifluoromethyl)phenyl)-3-(2-(4-(2-amino-5-fluoropyridin-3-yl)phenoxy)pyrimidin-5-yl)urea] | 47 |
| Nc1ncc(Cl)cc1-c1ccc(Oc2ncc(NC(=O)Nc3ccc(C(F)(F)F)cc3Cl)cn2)cc1 [Example 15-6, 1-(2-(4-(2-amino-5-chloropyridin-3-yl)phenoxy)pyrimidin-5-yl)-3-(2-chloro-4-(trifluoromethyl)phenyl)urea] | 51 |
| COc1ccn2ncc(-c3ccc(Oc4ncc(NC(=O)Nc5cc(C(F)(F)F)ccc5-c5cccnc5)cn4)cc3)c2n1 [Example 21-9, 1-(2-(4-(5-methoxypyrazolo[1,5-a]pyrimidin-3-yl)phenoxy)pyrimidin-5-yl)-3-(2-(pyridin-3-yl)-5-(trifluoromethyl)phenyl)urea] | 64 |
| O=C(Nc1cnc(Oc2ccc(-c3cnn4cccnc34)cc2)nc1)Nc1cc(C(F)(F)F)ccc1-c1cccnc1 [Example 21-13, 1-(2-(4-(pyrazolo[1,5-a]pyrimidin-3-yl)phenoxy)pyrimidin-5-yl)-3-(2-(pyridin-3-yl)-5-(trifluoromethyl)phenyl)urea] | 66 |
